From patent US20250368628A1, “METHODS AND COMPOUNDS FOR MODULATING INHERITED GENETIC DISEASES” (Design Therapeutics, Inc., priority 2022, published 2025)
Like-named read-outs stand apart in the source and are kept apart here.

Experiments:
F35T cells = assay: Foci reduction in FECD (CAG10-Cy3 FISH, foci per nucleus); assay type: cell-based
How it was run: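 F35T cells, 5000 per well, were treated for 48 h at 37 °C, 5% CO2 in an 8-point dose response. Cells were then fixed in 4% PFA, permeabilized in 70% ethanol and hybridized overnight at 37 °C with a CAG10-Cy3 probe in 30% formamide/2×SSC. After DAPI staining, imaging gave foci per nucleus.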

[1] = tested on: Myotonic Dystrophy 1 affected patient fibroblasts (Coriel GM04602; 1600 CTG repeats); assay: DM1 foci reduction assay (EC50 assay; CAG10-Cy3 FISH, foci per nucleus); assay type: cell-based
How it was run: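 GM04602 DM1 patient fibroblasts (1600 CTG repeats) seeded 24 h, then treated 48 h at 37 °C with an 8-point 1:3 dose series from 3 μM. Cells PFA-fixed, ethanol-permeabilized and hybridized overnight with 5 nM CAG10-Cy3 probe, DAPI counterstained. Imaged at 20×, 4 fields per well, as average foci per nucleus.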

[2] = F35T cells, 48 h treatment, foci per nucleus; read-out: FECD EC50, 48 h
[3] = Homo sapiens, Fibroblast; DM1 patient fibroblasts, 48 h treatment, foci per nucleus; read-out: DM1 EC50, 48 h
[4] = F35T cells, foci per nucleus, 48 h treatment; read-out: FECD EC50, 48 h
[5] = Homo sapiens, Fibroblast; DM1 patient fibroblasts, foci per nucleus, 48 h treatment; read-out: DM1 EC50, 48 h

Row | Structure (SMILES) | EC50 (F35T cells; [2]) [nM] | EC50 [1, 3] [nM] | EC50 (F35T cells; [4]) [nM] | EC50 [1, 5] [nM]
1 | COCCOCCOCCOCCN(CCOCCOCCOCCOC)C(=O)CCCCn1cc(NC(=O)c2nc(NC(=O)CCNC(=O)c3cc(NC(=O)c4nccn4C)cn3C)cn2C)cc1C(=O)NCCCC(=O)Nc1cn(C)c(C(=O)NCCC(=O)Nc2cc(C(=O)Nc3cn(C)c(C(=O)NCCC(=O)NCCOCCOCCOCCN4CCC(C#CC#CC5CCN(C(=O)OC(C)(C)C)CC5)CC4)n3)n(C)c2)n1 [Compound B-228] | 100 to 500 | 100 to 500 |  | 
2 | Cn1cc(NC(=O)c2nc(NC(=O)CCNC(=O)c3cc(NC(=O)c4nccn4C)cn3C)cn2C)cc1C(=O)NCCCC(=O)Nc1cn(C)c(C(=O)NCCC(=O)Nc2cc(C(=O)Nc3cn(C)c(C(=O)NCCC(=O)N4CCC(C#CC5=CCNCC5)CC4)n3)n(C)c2)n1 [Compound B-346] | < 100 | 100 to 500 |  | 
3 | CCCNC(=O)CCNC(=O)c1nc(NC(=O)c2cc(NC(=O)CCNC(=O)c3nc(NC(=O)CCCNC(=O)c4cc(NC(=O)c5nc(NC(=O)CCNC(=O)c6cc(NC(=O)c7nccn7C)cn6C)cn5C)cn4C)cn3C)c[nH]2)cn1C [Compound B-63] | 100 to 500 | 100 to 500 |  | 
4 | CCCNC(=O)CCNC(=O)c1nc(NC(=O)c2cc(NC(=O)CCNC(=O)c3nc(NC(=O)CCCNC(=O)c4cc(NC(=O)c5nc(NC(=O)CCNC(=O)c6cc(NC(=O)c7nccn7C)cn6C)cn5C)cn4CC(C)C)cn3C)cn2C)cn1C [Compound B-403] | < 100 | < 100 |  | 
5 | CN1CCC(C#CC#CC2CCN(CCOCCOCCOCCNC(=O)CCNC(=O)c3nc(NC(=O)c4cc(NC(=O)CCNC(=O)c5nc(NC(=O)CCCNC(=O)c6cc(NC(=O)c7nc(NC(=O)CCNC(=O)c8cc(NC(=O)c9nccn9C)cn8C)cn7C)cn6C)cn5C)cn4C)cn3C)CC2)CC1 [Compound B-125] | 100 to 500 | 100 to 500 |  | 
6 | COCCOCCOCCOCCN(CCOCCOCCOCCOC)C(=O)CCNC(=O)c1nc(NC(=O)c2cc(NC(=O)CCNC(=O)c3nc(NC(=O)CCCNC(=O)c4cc(NC(=O)c5nc(NC(=O)CCNC(=O)c6cc(NC(C)c7nccn7C)cn6C)cn5C)cn4C)cn3C)cn2C)cn1C (centres unmarked) [Compound B-79] | > 1000 | 100 to 500 |  | 
7 | CN(CCCNC(=O)CCNC(=O)c1nc(NC(=O)c2cc(NC(=O)CCNC(=O)c3nc(NC(=O)CCCNC(=O)c4cc(NC(=O)c5nc(NC(=O)CCNC(=O)c6cc(NC(=O)c7nccn7C)cn6C)cn5C)cn4C)cn3C)cn2C)cn1C)CCCNC(=O)c1cccc(C(=O)O)c1 [Compound B-35] | 100 to 500 | 500 to 1000 |  | 
8 | CCCNC(=O)c1nc(NC(=O)c2cc(NC(=O)CCNC(=O)c3nc(NC(=O)CCCNC(=O)c4cc(NC(=O)c5nc(NC(=O)CCNC(=O)c6cc(NC(=O)c7nc(N=C(N)N)cn7C)cn6C)cn5C)cn4C)cn3C)cn2C)cn1C [Compound B-328] | 100 to 500 | 100 to 500 |  | 
9 | CCCNC(=O)CCNC(=O)c1nc(NC(=O)c2cc(NC(=O)CCNC(=O)c3nc(NC(=O)CCCNC(=O)c4cc(NC(=O)c5nc(NC(=O)CCNC(=O)c6cc(NC(=O)c7nccn7C)cn6C)cn5C)cn4CCCCCN)cn3C)cn2C)cn1C [Compound B-286] | < 100 | 100 to 500 |  | 
10 | CC(=O)NCCn1cc(NC(=O)c2nc(NC(=O)CCNC(=O)c3cc(NC(=O)c4nccn4C)cn3C)cn2C)cc1C(=O)NCCCC(=O)Nc1cn(C)c(C(=O)NCCC(=O)Nc2cc(C(=O)Nc3cn(C)c(C(=O)NCCC(=O)N4CCC(C#CC#CC5CCN(C(C)=O)CC5)CC4)n3)n(C)c2)n1 [Compound B-269] | < 100 | 100 to 500 |  | 
11 | CC(C)CCCN1CCC(C#CC#CC2CCN(CCOCCOCCOCCNC(=O)CCNC(=O)c3nc(NC(=O)c4cc(NC(=O)CCNC(=O)c5nc(NC(=O)CCCNC(=O)c6cc(NC(=O)c7nc(NC(=O)CCNC(=O)c8cc(NC(=O)c9nccn9C)cn8C)cn7C)cn6C)cn5C)cn4C)cn3C)CC2)CC1 [Compound B-170] | 100 to 500 | 100 to 500 |  | 
12 | CN1CCN(C2CCN(C(=O)CCNC(=O)c3nc(NC(=O)c4cc(NC(=O)CCNC(=O)c5nc(NC(=O)CCCNC(=O)c6cc(NC(=O)c7nc(NC(=O)CCNC(=O)c8cc(NC(=O)c9nccn9C)cn8C)cn7C)cn6C)cn5C)cn4C)cn3C)CC2)CC1 [Compound B-131] | < 100 | 100 to 500 |  | 
13 | COCCOCCOCCOCCN(CCCCCn1cc(NC(=O)CCNC(=O)c2nc(NC(=O)CCCNC(=O)c3cc(NC(=O)c4nc(NC(=O)CCNC(=O)c5cc(NC(=O)c6nccn6C)cn5C)cn4C)cn3C)cn2C)cc1C(=O)Nc1cn(C)c(C(=O)NCCC(=O)N2CCC(N3CCNCC3)CC2)n1)CCOCCOCCOCCOC [Compound B-158] | > 1000 | > 1000 |  | 
14 | Cn1cc(NC(=O)c2nc(NC(=O)CCNC(=O)c3cc(NC(=O)c4nccn4C)cn3C)cn2C)cc1C(=O)NCCCC(=O)Nc1cn(C)c(C(=O)NCCC(=O)Nc2cc(C(=O)Nc3cn(C)c(C(=O)NCCC(=O)N4CCN(CCOCCOCCOCCOCCN)CC4)n3)n(C)c2)n1 [Compound B-28] | 500 to 1000 | 500 to 1000 |  | 
15 | Cn1cc(NC(=O)c2nccn2C)cc1C(=O)NCCC(=O)Nc1cn(C)c(C(=O)Nc2cc(C(=O)NCCCC(=O)Nc3cn(C)c(C(=O)NCCC(=O)Nc4cc(C(=O)Nc5cn(C)c(C(=O)NCCC(=O)N6CCC(C#CC#CC7CCNCC7)CC6)n5)n(C)c4)n3)n(CCOCCN)c2)n1 [Compound B-297] | 100 to 500 | > 1000 |  | 
16 | CSCCCC(=O)N1CCC(C#CC#CC2CCN(CCOCCOCCOCCNC(=O)CCNC(=O)c3nc(NC(=O)c4cc(NC(=O)CCNC(=O)c5nc(NC(=O)CCCNC(=O)c6cc(NC(=O)c7nc(NC(=O)CCNC(=O)c8cc(NC(=O)c9nccn9C)cn8C)cn7C)cn6C)cn5C)cn4C)cn3C)CC2)CC1 [Compound B-173] | 100 to 500 | 100 to 500 |  | 
17 | C=C(NCCC(=O)Nc1cc(C(=O)Nc2cn(C)c(C(=O)NCCC(=O)N3CCC(C#CC#CC4CCN(C(C)=O)CC4)CC3)n2)n(C)c1)c1nc(NC(=O)CCCNC(=O)c2cc(NC(=O)c3nc(NC(=O)CCNC(=O)c4cc(NC(=O)c5nccn5C)cn4C)cn3C)cn2CCCn2cc(COCCOCCOCCOC)nn2)cn1C [Compound B-402] | < 100 | 100 to 500 |  | 
18 | CC(=O)N1CCN(CC2CCN(C(=O)CCNC(=O)c3nc(NC(=O)c4cc(NC(=O)CCNC(=O)c5nc(NC(=O)CCCNC(=O)c6cc(NC(=O)c7nc(NC(=O)CCNC(=O)c8cc(NC(=O)c9nccn9C)cn8C)cn7C)cn6C)cn5C)cn4C)cn3C)CC2)CC1 [Compound B-128] | < 100 | 100 to 500 |  | 
19 | COCCOCCOCCOCCOCCOCCC(=O)NCCCCCCn1cc(NC(=O)c2nc(NC(=O)CCNC(=O)c3cc(NC(=O)c4nccn4C)cn3C)cn2C)cc1C(=O)NCCCC(=O)Nc1cn(C)c(C(=O)NCCC(=O)Nc2cc(C(=O)Nc3cn(C)c(C(=O)NCCC(=O)N4CCC(C#CC#CC5CCN(C(C)=O)CC5)CC4)n3)n(C)c2)n1 [Compound B-239] | 100 to 500 | 100 to 500 |  | 
20 | CCCNC(=O)CCNC(=O)c1nc(NC(=O)c2cc(NC(=O)CCNC(=O)c3nc(NC(=O)CCCNC(=O)c4cc(NC(=O)c5nc(NC(=O)CCNC(=O)c6cc(NC(=O)c7nccn7C)cn6C)cn5C)cn4CCC)cn3C)cn2C)cn1C [Compound B-320] | < 100 | < 100 |  | 
21 | CC(Nc1cc(C(=O)NCCC(=O)Nc2cn(C)c(C(=O)Nc3cc(C(=O)NCCCC(=O)Nc4cn(C)c(C(=O)Nc5cc(C(=O)NCCC(=O)Nc6cn(C)c(C(=O)NCCC(=O)NCCOCCOCCOCCOCCOCCNC(=O)[C@@H](N)CO)n6)n(C)c5)n4)n(C)c3)n2)n(C)c1)c1nccn1C (some centres unmarked) [Compound B-111] | > 1000 | 500 to 1000 |  | 
22 | CN1CCN(C(=O)CCNC(=O)c2nc(NC(=O)c3cc(NC(=O)CCNC(=O)c4nc(NC(=O)[C@H](N)CCNC(=O)c5cc(NC(=O)c6nc(NC(=O)CCNC(=O)c7cc(NC(=O)c8nccn8C)cn7C)cn6C)cn5C)cn4C)cn3C)cn2C)CC1 [Compound B-405] | > 1000 | > 1000 |  | 
23 | CCCNC(=O)CCNC(=O)c1nc(NC(=O)c2cc(NC(=O)CCNC(=O)c3nc(NC(=O)C[C@@H](N)CNC(=O)c4cc(NC(=O)c5nc(NC(=O)CCNC(=O)c6cc(NC(=O)c7nccn7C)cn6C)cn5C)cn4C)cn3C)cn2C)cn1C [Compound B-415] |  |  | 100 to 500 | 100 to 500
24 | Cn1cc(NC(=O)c2nc(NC(=O)CCNC(=O)c3cc(NC(=O)c4nccn4C)cn3C)cn2C)cc1C(=O)NCCCC(=O)Nc1cn(C)c(C(=O)NCCC(=O)Nc2cc(C(=O)Nc3cn(C)c(C(=O)NCCC(=O)NCC#Cc4ccccc4)n3)n(C)c2)n1 [Compound B-136] | 100 to 500 | 100 to 500 |  | 
25 | CCCNC(=O)c1cc(NC(=O)CCNC(=O)c2nc(NC(=O)CCCNC(=O)c3cc(NC(=O)c4nc(NC(=O)CCNC(=O)c5cc(NC(=O)c6nccn6C)cn5C)cn4C)cn3C)cn2C)cn1C [Compound B-209] | > 1000 | > 1000 |  | 
26 | CC(=O)NCCOCCn1cc(NC(=O)c2nc(NC(=O)CCNC(=O)c3cc(NC(=O)c4nccn4C)cn3C)cn2C)cc1C(=O)NCCCC(=O)Nc1cn(C)c(C(=O)NCCC(=O)Nc2cc(C(=O)Nc3cn(C)c(C(=O)NCCC(=O)N4CCC(C#CC#CC5CCNCC5)CC4)n3)n(C)c2)n1 [Compound B-300] | < 100 | < 100 |  | 
27 | Cn1cc(NC(=O)c2nc(NC(=O)CCNC(=O)c3cc(NC(=O)c4nccn4C)cn3C)cn2C)cc1C(=O)NCCCC(=O)Nc1cn(C)c(C(=O)NCCC(=O)Nc2cc(C(=O)Nc3cn(C)c(C(=O)NCCCN=C(N)N)n3)n(C)c2)n1 [Compound B-205] | < 100 | < 100 |  | 
28 | CN1CCN(C(=O)CCNC(=O)c2nc(NC(=O)c3cc(NC(=O)CCNC(=O)c4nc(NC(=O)C[C@@H](N)CNC(=O)c5cc(NC(=O)c6nc(NC(=O)CCNC(=O)c7cc(NC(=O)c8nccn8C)cn7C)cn6C)cn5C)cn4C)cn3C)cn2C)CC1 [Compound B-416] |  |  | > 1000 | 500 to 1000
